Measurements taken from US10953100B2, “Compounds and therapeutic uses thereof” (priority 2015, dated 2021).

Target: Anti-alpha galactosyl IgG antibody
Assay: ELISA assay: streptavidin-captured biotin compound, binding of anti-alpha galactosyl IgG antibody
Parameters: species or system human
Details: geometric mean with standard error in brackets; streptavidin plate, anti-alpha galactosyl IgG 0.5 μg/mL; read-out: Concentration at half maximal binding
Experimental: Compounds containing F (representing a carbohydrate molecule capable of binding to a human anti-alpha-galactosyl antibody) and L (as biotin) were assayed for binding at both ends of the compound using an enzyme-linked immunosorbent assay (ELISA). Streptavidin-coated plates captured biotin to the surface of the plate and the binding of anti-alpha galactosyl antibodies to the alpha-galactosyl moiety was reported by a secondary antibody labelled with HRP (Horse Radish Peroxidase).
Compounds were titrated 1.5 fold from a top dose of 50 nM in phosphate buffered saline (PBS) (Sigma D8537)+0.025% DMSO (Dimethyl Sulphoxide, Sigma D8418). Streptavidin immobilizer 96-well plates (nunc 436014) were coated with 100 μL of compound at room temperature for 2 hours shaking at 500 rpm. Plates were washed with 2×200 μL PBS-T (PBS with 0.05% Tween 20 (Sigma P9416)) and 1×200 μL PBS-T with a 5 minute incubation shaking at room temperature, prior to being blocked for 1 hour at room temperature with 1% Bovine Serum Albumin (BSA, Sigma A2153) in PBS-T. After removing the blocking buffer, 50 μL of Anti-alpha galactosyl IgG antibody (Anti-alpha-galactosyl antibody was purified from human IVIG (Gammagard) by affinity purification using an alpha-galactosyl-HSA (Human Serum Albumin) sepharose column by Rockland Immunochemicals Inc.) at 0.5 μg/mL in PBS-T+1% BSA and incubated shaking at room temperature for 1 hour.
Plates were washed 2×200 μL PBS-T and 3×200 μL PBS-T with a 5 minute incubation, shaking at room temperature before the addition of 50 μL 1:5000 Goat Anti-Human IgG-HRP (horseradish peroxidase) conjugate (Abcam ab97175). The plates were incubated shaking at room temperature for 1 hour before a final wash of 2×200 μL PBS-T and 3×200 μl PBS-T with a 5 minute incubation shaking at room temperature. 100 μL TMB buffer (3,3′,5,5′-tetramethylbenzidine, a chromogenic substrate for horseradish peroxidase) (Pierce 34021) was added to the plate and allowed to develop for 5-10 minutes before the samples were quenched with 50 μL 2M sulfuric acid (Sigma 258105). The absorbance was read at 450 nm on an Envision plate reader (Perkin Elmer). Results from wells (duplicate) were averaged and the 50% binding affinity calculated.
The concentration at which half-maximal binding is achieved is reported as a geometric mean with standard error in brackets. The number of independent experiments is also reported. In order to achieve a signal both ends of the molecule are required to bind (biotin to streptavidin and alpha-galactosyl to anti-alpha galactosyl antibodies) simultaneously.

Row | Structure (SMILES) | EC50 [nM]
1 | CC(=O)N[C@H]1[C@H](OCCCNC(=O)COc2cccc(CNC(=O)CCCCC(=O)NCCNC(=O)CCCC[C@@H]3SC[C@@H]4NC(=O)N[C@@H]43)c2)O[C@H](CO)[C@@H](O[C@@H]2O[C@H](CO)[C@H](O)[C@H](O[C@H]3O[C@H](CO)[C@H](O)[C@H](O)[C@H]3O)[C@H]2O)[C@@H]1O [Example 12, N^1-(3-(2-((3-(((2R,3R,4R,5S,6R)-3-Acetamido-5-(((2S,3R,4S,5S,6R)-3,5-dihydroxy-6-(hydroxymethyl)-4-(((2R,3R,4S,5R,6R)-3,4,5-trihydroxy-6-(hydroxymethyl)tetrahydro-2H-pyran-2-yl)oxy)tetrahydro-2H-pyran-2-yl)oxy)-4-hydroxy-6-(hydroxymethyl)tetrahydro-2H-pyran-2-yl)oxy)propyl)amino)-2-oxoethoxy)benzyl)-N6-(2-(5-((3aS,4S,6aR)-2-oxohexahydro-1H-thieno[3,4-d]imidazol-4-yl)pentanamido)ethyl)adipamide] | 37.3
2 | CC(=O)N[C@H]1[C@H](OCCCNC(=O)CCCCC(=O)NCc2cccc(C(=O)NCCNC(=O)CCCC[C@@H]3SC[C@@H]4NC(=O)N[C@@H]43)c2)O[C@H](CO)[C@@H](O[C@@H]2O[C@H](CO)[C@H](O)[C@H](O[C@H]3O[C@H](CO)[C@H](O)[C@H](O)[C@H]3O)[C@H]2O)[C@@H]1O [Example 13, N^1-(3-(((2R,3R,4R,5S,6R)-3-Acetamido-5-(((2S,3R,4S,5S,6R)-3,5-dihydroxy-6-(hydroxymethyl)-4-(((2R,3R,4S,5R,6R)-3,4,5-trihydroxy-6-(hydroxymethyl)tetrahydro-2H-pyran-2-yl)oxy)tetrahydro-2H-pyran-2-yl)oxy)-4-hydroxy-6-(hydroxymethyl)tetrahydro-2H-pyran-2-yl)oxy)propyl)-N6-(3-((2-(5-((3aS,4S,6aR)-2-oxohexahydro-1H-thieno[3,4-d]imidazol-4-yl)pentanamido)ethyl)carbamoyl)benzyl)adipamide] | 37.3
3 | CC(=O)NC1C(OCCCNC(=O)COc2cc(OCC(=O)NCCCOC3OC(CO)C(OC4OC(CO)C(O)C(OC5OC(CO)C(O)C(O)C5O)C4O)C(O)C3NC(C)=O)cc(-c3cc(OCC(=O)NCCCOC4OC(CO)C(OC5OC(CO)C(O)C(OC6OC(CO)C(O)C(O)C6O)C5O)C(O)C4NC(C)=O)cc(C(=O)NCCNC(=O)CCOCCOCCOCCOCCOCCOCCOCCOCCOCCOCCOCCOCCNC(=O)CCCCC4SCC5NC(=O)NC54)c3)c2)OC(CO)C(OC2OC(CO)C(O)C(OC3OC(CO)C(O)C(O)C3O)C2O)C1O (centres unmarked) [Example 16] | 8.4

Now from value to molecule:

Row | EC50 [nM] | Structure (SMILES)
4 | 11.9 | CC(=O)N[C@H]1[C@H](OCCCNC(=O)COc2cccc(-c3cc(OCC(=O)NCCCO[C@@H]4O[C@H](CO)[C@@H](O[C@@H]5O[C@H](CO)[C@H](O)[C@H](O[C@H]6O[C@H](CO)[C@H](O)[C@H](O)[C@H]6O)[C@H]5O)[C@H](O)[C@H]4NC(C)=O)cc(C(=O)NCCNC(=O)CCCC[C@@H]4SC[C@@H]5NC(=O)N[C@@H]54)c3)c2)O[C@H](CO)[C@@H](O[C@@H]2O[C@H](CO)[C@H](O)[C@H](O[C@H]3O[C@H](CO)[C@H](O)[C@H](O)[C@H]3O)[C@H]2O)[C@@H]1O [Example 14]
5 | 11.5 | CC(=O)NC1C(OCCCNC(=O)COc2ccc(-c3cc(OCC(=O)NCCCOC4OC(CO)C(OC5OC(CO)C(O)C(OC6OC(CO)C(O)C(O)C6O)C5O)C(O)C4NC(C)=O)cc(C(=O)NCCNC(=O)CCOCCOCCOCCOCCOCCOCCOCCOCCOCCOCCOCCOCCNC(=O)CCCCC4SCC5NC(=O)NC54)c3)cc2)OC(CO)C(OC2OC(CO)C(O)C(OC3OC(CO)C(O)C(O)C3O)C2O)C1O (centres unmarked) [Example 15]
